How the values were obtained:
[1] = target: T1, mitochondrial benzodiazepine receptor (MBR) (Rattus norvegicus, UniProt P16257); assay: Binding assay of mitochondrial benzodiazepine receptor (MBR), [3H]4'-chlorodiazepam (Ro5-4864), rat kidney membrane-preparation; conditions: rat kidney membranes, [3H]4'-chlorodiazepam 0.5 nM, 0° C. for 150 minutes
T1 construct: from tissue; host or cells: kidney of male Wistar rats (crude membrane preparation)
Method: The binding assay of central-type benzodiazepine receptor (CBR) and the preparation of receptor membrane-preparation were carried out according to the partially modified method of Braestrup, C. et al. [see; Br. J. Psychiatry, 133, 249-260 (1978)] with a minor modification; the binding assay of mitochondrial benzodiazepine receptor (MBR) and the preparation of receptor membrane-preparation were carried out according to the method of Schoemaker, H [see; J. Pharmacol. Exp. Ther., 225, 61-69 (1983)] with a minor modification.
CBR and MBR membrane-preparations were prepared from forebrain (CBR) and kidney (MBR) of male Wistar strain rats according to the following procedure, respectively.
To the forebrain of rat, 20 volumes of ice-cold 0.32 M sucrose solution to wet-weight of the tissue (1:20, wet-weight/vol) was added and homogenized, and then the homogenate was centrifuged at 900×g for 10 minutes. The supernatant was centrifuged at 11,500×g for 20 minutes, a buffer I for the binding assay (50 mM Tris-hydrochloric acid buffer, pH 7.5) was added to the resultant precipitate, and the mixture was homogenized, and then it was centrifuged at 30,000×g for 10 minutes. The resulting precipitate was washed 3 times according to the same operation, suspended in the buffer I (1 g of wet-weight of tissue/10 ml) and used as a CBR membrane-preparation for the binding assay. The CBR membrane-preparation was stored at −80° C. until use, and on the day of the assay, it was thawed and suspended in the buffer for use. On the other hand, kidney of rat was homogenized in 20 volumes of ice-cold buffer II for the binding assay to wet-weight of the tissue (1:20, wet-weight/vol) (50 mM sodium phosphate-potassium phosphate buffer solution containing 100 mM sodium chloride, pH 7.4), and then filtrated through 4 layers of gauze, and the filtrate was centrifuged at 40,000×g for 20 minutes. The resulting precipitate was suspended in the buffer II (1 g of wet-weight of tissue/50 ml) and used as a MBR membrane-preparation for the binding assay.
As a labeled ligand and a non-labeled ligand, [^3H]flunitrazepam (final concentration: 1 nM) and diazepam (final concentration: 20 μM) were used respectively, for the CBR binding assay, and [^3H]4′-chlorodiazepam (Ro5-4864, chemical name: 7-chloro-1,3-dihydro-1-methyl-5-(4-chloro-phenyl)-2H-1,4-[…]) (final concentration: 0.5 nM) and diazepam (final concentration: 50 μM) were used respectively, for the MBR binding assay. The binding assay of CBR was carried out by incubating at 0° C. for 30 minutes, while that of MBR was at 0° C. for 150 minutes.
The receptor binding assay was carried out in the following procedure. The test compound which the concentration was known, a tritium labeled ligand, a receptor membrane-preparation and the buffer I or II for the binding assay were added to a 96-well microplate in the total volume was 0.2 ml, and when the receptor membrane-preparation was added, the reaction started. After the incubation, the labeled ligand binding to the receptor was filtrated through a filter plate (UNI FILTER-96GF/B, PerkinElmer, the U.S.) using a cell harvester (PerkinElmer, the U.S.) to stop the reaction. The filter was immediately washed 6 times with 0.3 ml of the ice-cold buffer [50 mM Tris-hydrochloric acid buffer (pH 7.7)]. After 30 μl of liquid scintillation cocktail (MICROSCINTI 20, PerkinElmer, the U.S.) was added to each well on the dried filter plate, the radioactivity was measured with a TopCount. The specific binding amount was obtained by subtracting the non-specific binding amount which was simultaneously measured in the presence of non-labeled ligand from the total binding amount. The concentration that the test compound could decrease the specific binding amount of the labeled ligand to 50% of the amount (IC50 value) was analyzed using nonlinear least-squares method.

mice (male ddY) = assay: Social interaction test (antianxiety effect); type: in vivo, mouse; conditions: oral, 1 hour before test; statistically significant increase in social interaction time vs vehicle (Dunnett's test, 5%)
Source text: The test is a behavioral pharmacological test wherein social interaction time which would arise between 2 animals (mice, rats or other) in a test apparatus is considered to be as an anxious indicator [see; File, S. E., J. Neurosci. Methods, 2, 219-238 (1980)]. It is known that a bright and unfamiliar test apparatus which is an aversive condition for mice or rats may suppress a social interaction of the animals and such suppressed social interaction may be restored by an antianxiety drug such as benzodiazepines.
A glass beaker which was inverted onto a frosted glass plate was brightly illuminated with a light source (ca. 1200 lux in the apparatus), and it was used as a test apparatus. Two mice (male ddY, 22-32 g) that were housed in separate home cages were orally treated with a test compound and returned to their home cages. One hour after the oral administration, the two mice were then placed together in the test apparatus, and the amount of time spent in social interaction by the two mice during a 15-minute period was recorded. The social interaction was defined as grooming and sniffing of the partner, genital investigation of the partner, climbing over or crawling under the partner. Four to five pairs (8 to 10 mice) were used per a group.
An antianxiety effect of the test compounds was presented as a minimum effective dose which indicated statistically significant increase in social interaction time as compared with a vehicle control group (Dunnett's test, Significance level: 5%).

Compound | IC50 [1] [nM] | melting point [°C] | Minimum effective dose (mice (male ddY)) [mg/kg]
C[C@H]1CCCN(C(=O)[C@@H]2Cc3ccccc3N2c2cccnn2)C1 [Example 63, (S)-2-[(S)-3-methylpiperidin-1-yl]carbonyl-1-(3-pyridazinyl)indoline] | 2.51 | 143 to 145 | 0.01
CCn1nc(N2c3ccccc3C[C@H]2C(=O)N2CCC[C@H](C)C2)ccc1=O [Example 129, (S)-1-(1-ethyl-6-oxo-1,6-dihydropyridazin-3-yl)-2-[[(S)-3-methylpiperidin-1-yl]carbonyl]indoline] | 5.56 | – | 1
O=C(C1Cc2ccccc2N1c1ncccn1)N1CCCC(F)(F)C1 (racemic) [Example 48] | 77 | 172 to 174 | –
C[C@@H]1C[C@H](C)CN(C(=O)[C@H]2Cc3ccccc3N2c2ncccn2)C1 [Example 42] | 14.3 | 159 to 160 | –
Cc1ccc(N2c3ccccc3C[C@H]2C(=O)N2CCC[C@H](C)C2)nn1 [Example 37] | 3.23 | 192 to 194 | –
2-[((cis-3,5-dimethylpiperidin-1-yl)-carbonyl]-1-(2-pyrimidinyl)indoline [Example 1] | 1.98 | – | 0.001
C=Cc1ccc2c(c1)C[C@@H](C(=O)N1CCC[C@H](C)C1)N2c1cccnn1 [Example 98] | 44.3 | 103 to 106 | –
C[C@@H]1CCCN(C(=O)[C@@H]2Cc3ccccc3N2c2cccnn2)C1 [Example 62] | 12.2 | 169 to 172 | –
COc1cccc2c1CC(C(=O)N1CCCC(C)C1)N2c1ccc(=O)n(C)n1 (racemic) [Example 133] | 3.95 | 181 to 182 | –
CC1CC(C)CN(C(=O)[C@@H]2Cc3ccccc3N2c2ncccn2)C1 (stereo partly shown) [Example 25] | 6.73 | 237 to 239 | –
C[C@@H]1CCCN(C(=O)[C@@H]2Cc3ccccc3N2c2ncccn2)C1 [Example 22] | 19.3 | 151 to 153 | –
COc1ccc2c(c1)N(c1ccc(=O)n(C)n1)C(C(=O)N1CCCC(C)C1)C2 (racemic) [Example 135] | 13.5 | 182 to 184 | –
COc1ccc2c(c1)N(c1ccc(Cl)nn1)C(C(=O)N1CCC[C@H](C)C1)C2 (stereo partly shown) [Example 70] | 2.45 | 184 to 186 | –
C[C@H]1CCCN(C(=O)[C@@H]2Cc3ccccc3N2c2cnn(C)c(=O)c2)C1 [Example 83] | 9.33 | 150 to 152 | –
CC1CC(C)CN(C(=O)C2Cc3ccccc3N2c2ccncn2)C1 (racemic) [Example 58] | 4.31 | 107 to 109 | –
C[C@H]1CCCN(C(=O)[C@@H]2Cc3ccccc3N2c2ccc(=O)n(CC3CCCCC3)n2)C1 [Example 77] | 3.15 | 215 to 217 | –

Further lines, with some results ahead:

IC50 [1] [nM] | melting point [°C] | Compound | Minimum effective dose (mice (male ddY)) [mg/kg]
2.41 | 200 to 204 | C[C@@H]1C[C@H](C)CN(C(=O)[C@@H]2Cc3ccccc3N2c2ccc(=O)n(C)n2)C1 [Example 41, (S)-1-(1-methyl-6-oxo-1,6-dihydropyridazin-3-yl)-2-[(cis-3,5-dimethylpiperidin-1-yl)carbonyl]indoline] | 0.01
2.03 | – | C[C@@H]1C[C@H](C)CN(C(=O)[C@@H]2Cc3ccccc3N2c2cccnn2)C1 [Example 57, (S)-2-[(cis-3,5-dimethylpiperidin-1-yl)-carbonyl]-1-(3-pyridazinyl)indoline] | 0.1
0.851 | 163 to 164 | C[C@@H]1C[C@H](C)CN(C(=O)[C@@H]2Cc3ccccc3N2c2ncccn2)C1 [Example 24, (S)-2-(cis-3,5-dimethylpiperidin-1-yl)carbonyl-1-(2-pyrimidinyl)indoline] | 0.001
1.14 | 139 to 141 | C[C@@H]1C[C@H](C)CN(C(=O)C2Cc3ccccc3N2c2ccc(F)cn2)C1 (relative stereo) [Example 10] | –
0.949 | 212 to 214 | C[C@H]1CCCN(C(=O)[C@@H]2Cc3ccccc3N2c2ncccn2)C1 [Example 23, (S)-2-[(S)-3-methylpiperidin-1-yl]carbonyl-1-(2-pyrimidinyl)indoline] | 0.01
1.76 | 268 to 269 | C[C@H]1CCCN(C(=O)[C@@H]2Cc3ccccc3N2c2ccc3nnc(Cl)n3n2)C1 [Example 79, (S)-1-(3-chloro-1,2,4-triazolo[4,3-b]pyridazin-6-yl)-2-[[(S)-3-methylpiperidin-1-yl]carbonyl]indoline] | –
1.97 | 173 to 175 | C[C@H]1CCCN(C(=O)[C@@H]2Cc3ccccc3N2c2ccc(=O)n(CC(F)F)n2)C1 [Example 127] | –
1.47 | 165 to 167 | C[C@@H]1C[C@H](C)CN(C(=O)[C@@H]2Cc3ccccc3N2c2nc3ccccc3o2)C1 [Example 18] | –
1.45 | 220 to 222 | C[C@H]1CCCN(C(=O)[C@@H]2Cc3ccccc3N2c2ccc(=O)n(Cc3ccccc3)n2)C1 [Example 123, (S)-1-(1-benzyl-6-oxo-1,6-dihydropyridazin-3-yl)-2-[[(S)-3-methylpiperidin-1-yl]carbonyl]indoline] | –
2.05 | 147 to 149 | CCc1cnc(N2c3ccccc3CC2C(=O)N2C[C@H](C)C[C@H](C)C2)nc1 (relative stereo) [Example 8] | –
1.84 | 137 to 139 | Cc1ccc(N2c3ccccc3CC2C(=O)N2C[C@H](C)C[C@H](C)C2)nc1 (relative stereo) [Example 11] | –
1.28 | 182 to 184 | C[C@@H]1C[C@H](C)CN(C(=O)[C@@H]2Cc3ccccc3N2c2ccc(Cl)nn2)C1 [Example 36] | –
0.659 | 186 to 189 | C[C@H]1CCCN(C(=O)[C@@H]2Cc3ccccc3N2c2ccccn2)C1 [Example 72] | –
1.42 | 162 to 164 | C[C@@H]1C[C@H](C)CN(C(=O)[C@@H]2Cc3ccccc3N2c2cnccn2)C1 [Example 61, (S)-2-(cis-3,5-dimethylpiperidin-1-yl)carbonyl-1-(2-pyrazinyl)indoline] | –
